Laboratory results as given in US11534478B2, “Compositions and methods for treating cancer” (Biokine Therapeutics Ltd., priority 2015, dated 2022).
Where a SMILES comes first, the peptide text is derived from it. Bridges are numbered along the chain shown (N, C = ends). [ ]: non-standard residue; d: D form. The star is where a group is joined. 2Nal = N[C@@H](Cc1ccc2ccccc2c1)C(=O)O; Benzoyl(4-F) = O=C(c1ccc(F)cc1)*; Cit = NC(=O)NCCC[C@H](N)C(=O)O

Key:
[1] = target: T1, ID02 (Homo sapiens, UniProt Q6ZQW0); settings: D isomer; cited from earlier work
T1 sequence (Q6ZQW0 1-407): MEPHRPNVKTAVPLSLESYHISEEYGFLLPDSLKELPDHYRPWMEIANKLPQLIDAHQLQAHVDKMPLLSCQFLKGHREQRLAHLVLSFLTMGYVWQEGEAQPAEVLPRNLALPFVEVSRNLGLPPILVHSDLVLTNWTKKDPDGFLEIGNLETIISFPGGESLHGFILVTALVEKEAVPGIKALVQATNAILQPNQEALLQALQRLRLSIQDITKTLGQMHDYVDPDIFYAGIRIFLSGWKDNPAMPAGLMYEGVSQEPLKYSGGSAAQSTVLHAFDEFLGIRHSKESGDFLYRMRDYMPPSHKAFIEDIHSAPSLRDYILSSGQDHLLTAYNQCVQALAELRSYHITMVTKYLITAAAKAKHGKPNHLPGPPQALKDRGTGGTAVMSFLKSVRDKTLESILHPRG

[2] = in vivo
[3] = target: KIR2DL3 (Homo sapiens, UniProt P10321+P43628); settings: cited from earlier work
Chain of KIR2DL3 (P43628 22-341): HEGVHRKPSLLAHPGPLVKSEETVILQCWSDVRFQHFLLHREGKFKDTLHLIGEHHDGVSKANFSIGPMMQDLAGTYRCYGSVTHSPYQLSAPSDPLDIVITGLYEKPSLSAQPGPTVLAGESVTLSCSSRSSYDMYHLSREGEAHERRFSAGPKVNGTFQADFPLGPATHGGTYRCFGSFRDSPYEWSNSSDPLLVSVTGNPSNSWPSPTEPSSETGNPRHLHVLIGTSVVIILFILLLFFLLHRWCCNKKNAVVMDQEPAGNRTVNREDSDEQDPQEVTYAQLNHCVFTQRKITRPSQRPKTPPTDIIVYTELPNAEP
Chain of KIR2DL3 (P10321 25-366): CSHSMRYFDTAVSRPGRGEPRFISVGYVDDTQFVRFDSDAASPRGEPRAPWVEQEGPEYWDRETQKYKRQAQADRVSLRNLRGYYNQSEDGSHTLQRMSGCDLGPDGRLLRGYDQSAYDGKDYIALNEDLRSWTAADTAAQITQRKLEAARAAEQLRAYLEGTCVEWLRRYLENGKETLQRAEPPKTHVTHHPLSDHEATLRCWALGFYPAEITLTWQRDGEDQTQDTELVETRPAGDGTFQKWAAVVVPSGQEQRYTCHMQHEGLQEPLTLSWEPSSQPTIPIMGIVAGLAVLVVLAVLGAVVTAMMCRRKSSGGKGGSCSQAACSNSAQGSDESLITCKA
Chain of KIR2DL3 (P61769 21-119 partner): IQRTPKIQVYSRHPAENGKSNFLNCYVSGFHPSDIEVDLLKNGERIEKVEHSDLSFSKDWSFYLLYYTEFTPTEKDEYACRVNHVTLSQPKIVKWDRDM

Row | Molecule | inhibition of KIR2DL3 [3] | other results
1 | Cn1cc(C[C@H](N)C(=O)O)c2ccccc21 [Analog 1-MT, 1-methyl tryptophan] | – | specificity for ID02 [1]: more specific for ID02
2 | N=C(N)NCCC[C@H](NC(=O)[C@@H]1CSSC[C@H](NC(=O)[C@H](Cc2ccc3ccccc3c2)NC(=O)[C@H](CCCNC(=N)N)NC(=O)[C@H](CCCNC(=N)N)NC(=O)c2ccc(F)cc2)C(=O)N[C@@H](Cc2ccc(O)cc2)C(=O)N[C@@H](CCCNC(N)=O)C(=O)N[C@@H](CCCCN)C(=O)N[C@H](CCCCN)C(=O)N2CCC[C@H]2C(=O)N[C@@H](Cc2ccc(O)cc2)C(=O)N[C@@H](CCCNC(=N)N)C(=O)N[C@@H](CCCNC(N)=O)C(=O)N1)C(N)=O [BL-8040, 4F-benzoyl-Arg-Arg-Nal-Cys-Tyr-Cit-Lys-DLys-Pro-Tyr-Arg-Cit-Cys-Arg-NH2] ({Benzoyl(4-F)}-RR[2Nal]CY[Cit]K[dK]PYR[Cit]CR-NH2; disulfide 4-13 (inferred)) | – | safety and tolerability [2]: safe and well tolerated
3 | VAPWNDAL | inhibitors of KIR2DL3 | –
4 | VAPWSNDYL | inhibitors of KIR2DL3 | –
